Common to all, as to assay type: cell-based
In one assay the target is T1, KCNJ5^WT (Homo sapiens, UniProt P48544).
T1 construct: expressed in transfected cells
T1 sequence (P48544 1-419): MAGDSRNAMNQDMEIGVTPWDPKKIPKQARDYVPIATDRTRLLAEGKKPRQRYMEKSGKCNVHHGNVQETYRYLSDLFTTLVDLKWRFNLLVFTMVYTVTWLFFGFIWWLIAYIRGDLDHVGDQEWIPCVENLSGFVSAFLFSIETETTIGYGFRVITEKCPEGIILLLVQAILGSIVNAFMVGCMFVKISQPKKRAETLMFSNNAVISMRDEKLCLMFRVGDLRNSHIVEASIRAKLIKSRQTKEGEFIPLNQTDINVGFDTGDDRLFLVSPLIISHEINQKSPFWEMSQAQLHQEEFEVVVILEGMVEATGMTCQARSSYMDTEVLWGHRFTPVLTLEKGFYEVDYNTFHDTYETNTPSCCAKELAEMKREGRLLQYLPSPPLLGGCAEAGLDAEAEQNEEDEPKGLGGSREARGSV
The experiment in a line: Membrane potential assay (FLIPR dye) in inducible KCNJ5^WT HEK293 cells. The following applies: 10-point dilution 20 to 0.0391 μM, N=3, four-parameter fit. As for the experimental part:
Single copies of WT or mutant human KCNJ5 cDNAs expressed under the control of tetracycline-inducible promoter were introduced into HEK293 cells using the Flp-in T-Rex System (Invitrogen) according to the manufacturer's instructions. Cells were grown in selective media containing 10% Tet-system approved FBS (Clontech) until induction.
20 μL of WT cells were plated into sterile black with clear bottom tissue culture-treated 384-well plates (Corning) at a density of 10000 cells/well using a Multidrop Combi. Assay plates were centrifuged at 500 rpm for 10 seconds and incubated overnight at 37° C. in a humidified 5% CO2 incubator. After the overnight incubation, 1 μL of tetracycline (final conc. 1 μg/mL) was added to all wells by Multidrop Combi to induce KCNJ5. Assay plates were centrifuged at 500 rpm for 10 seconds and incubated overnight at 37° C. in a humidified 5% CO2 incubator. The next day, 10 μL of medium was removed from each well using a PlateMate Plus (Thermo Scientific). 10 μL of Blue Formula FLIPR membrane potential dye (Molecular Devices) was added to cells using a Multichannel pipettor. Assay plates were incubated for 30 minutes. at 37° C. After incubation, 20 nL was transferred twice from the compound source plate to the cell assay plate using an Aquarius with a 384-well pin tool for a total transfer volume of 40 nL and a final DMSO concentration of 0.2%. 1 μL of 20 mM BaCl2 was added to positive control wells using a Multichannel pipettor. The assay plate was incubated 20 minutes at room temperature in the dark.
Changes in membrane potential were detected using a well-established fluorescence-based measure of membrane potential (FIG. 4).

A further assay concerns the target T2, KCNJ5^L168R (Homo sapiens, UniProt P48544, L168R).
T2 construct: expressed in transfected cells
T2 sequence (P48544 1-419 L168R): T1 sequence (P48544 1-419) with L168R
As to the kind of experiment: Cell viability assay (ATP, CellTiter-Glo): rescue of KCNJ5^L168R-induced lethality in inducible HEK293 cells. The note with it: for dose response on KCNJ5^L168R: tested at 1.1, 3.3 and 10 μM. As to the method: (§1) WT or mutant human KCNJ5 cDNAs (Choi et al., 2011, Science 331:768-772) were subcloned into the pcDNA5/FRT/TO vector using BamHI and HindIII. Single copies of WT or mutant human KCNJ5 cDNAs expressed under the control of tetracycline-inducible promoter were introduced into HEK293 cells using the Flp-in T-Rex System (Invitrogen) according to the manufacturer's instructions. Cells were grown in selective media containing 10% Tet-system approved FBS (Clontech) until induction.
(§2) Assay plates were centrifuged and incubated overnight at 37° C. 20 nL was transferred from the compound source plate to the cell assay plate using an Aquarius (Tecan) with a 384-well pin tool (V&P Scientific). The final concentration of compound for screening was 10 μM and the final DMSO concentration was 0.1%. 1 μL of tetracycline (final concentration 1 μg/mL) was added to compound containing and negative control wells by Multidrop Combi to induce expression. 1 μL of media was added to positive control wells. Assay plates were centrifuged and incubated for 72 hours at 37° C., 5% CO2. CellTiter-Glo (Promega) was used to measure cell viability in the assay wells according to the manufacturer's instructions. 10 μL/well of CellTiter-Glo reagent was added to the assay plates using a MultiDrop Combi. The plates were shaken on a Thermomixer R (Eppendorf) at 1100 rpm for 1 minute and incubated in the dark for 10 minutes at room temperature. Luminescence was read on an Envision plate reader (PerkinElmer) with 0.3 second sampling time per well. Raw data (luminescence counts per second) was normalized to percent effect by the formula 100−(((sample−negative control mean)/(positive control mean−negative control mean))*100).
(§3) Data was analyzed using the programs Excel (Microsoft) and Prism (GraphPad). Errors are SD unless otherwise indicated in the legend. Dose-response curves were fitted with a four-parameter logistic equation: F(x)=D+(A−D)/(1+(x/C)^B), with A=minimum inhibition B=Hill's slope C=inflection point D=maximum inhibition Synthesis of Macrolide Derivatives
(§4) Cellular ATP levels were measured as a proxy for cell viability, using a commercially available luciferase assay (Crouch et al., 1993, Proc. Natl. Acad. Sci. U.S.A. 109:2533-2538).
(§5) Conditions were designed to maximize reproducibility and the signal-to-background ratios (S/B) (Zhang et al., 1999, J. Biomol. Screen 4:67-73) comparing ATP level in uninduced and induced cells. Screening was performed in 384-well plates; compounds were added 24 hours after plating, and channel expression was induced immediately after compound addition. ATP levels were measured 72 hours after induction.

A further assay concerns the target T3, KCNJ5^G151R (Homo sapiens, UniProt P48544, G151R).
T3 construct: expressed in transfected cells
T3 sequence (P48544 1-419 G151R): T1 sequence (P48544 1-419) with G151R
The experiment in a line: cell-based. The following applies: for dose response on KCNJ5^G151R: tested at 1.1, 3.3 and 10 μM; for inhibition of KCNJ5^MUT (structure-activity statement): macrolide series, dilution curves. As to the method: as §1, §2, §3, §4, §5
Levels of ATP in uninduced and induced cells without added test compound defined 100% and 0% effect, respectively, and served as a proxy for lethality.

[1] abbreviates: 10-point dilution 20 to 0.0391 μM, N=3, four-parameter fit.

Changes are numbered by the printed parent chain.

Broadly, the IC50 is the point on the concentration scale where inhibition reaches its midpoint. Take `CC[C@H]1OC(=O)[C@H](C)[C@@H](O[C@H]2C[C@@](C)(OC)[C@@H](O)[C@H](C)O2)[C@H](C)[C@@H](O[C@@H]2O[C@H](C)C[C@H](N(C)C)[C@H]2O)[C@@]2(C)C[C@@H](C)[C@@]3(O[C@@]1(C)[C@H](O)[C@H]3C)O2` [Anhydroerythromycin A, anhydroerythromycin A]: at KCNJ5^WT, the “WT IC50” value is “No fit”. Moreover, on KCNJ5^L168R (setting [1]), the “L168R IC50” value is reported as “No fit”. Further, at KCNJ5^G151R (setting [1]), the G151R maximum inhibition came out at 60.00%, the G151R minimum inhibition came out at 5.61% and the IC50 worked out at 8.6 µM.

For the compound `CCN(CC)CCN1c2ccccc2Sc2ccc3ccccc3c21` [NSC18883], on KCNJ5^L168R, the “dose response on KCNJ5^L168R” value was “either high IC50 values or low maximum inhibition”. The “dose response on KCNJ5^G151R” value at KCNJ5^G151R is “potent inhibitors”.

On to `C1CCC(N=C(NC23CC4CC(CC(C4)C2)C3)N2CCOCC2)CC1.Cl` [YU224116, U-37883A-HCl], for which the “dose response on KCNJ5^L168R” value on KCNJ5^L168R was “either high IC50 values or low maximum inhibition”. Besides, the “% effect (1)” value at KCNJ5^G151R (10 μM, ATP level 72 h after induction, uninduced = 100%, induced = 0% effect, first of the two runs (primary screen / hit pick)) turned out to be 49.9%. Further, at KCNJ5^G151R (10 μM, ATP level 72 h after induction, uninduced = 100%, induced = 0% effect, second of the two runs (primary screen / hit pick, confirmatory testing)), the “% effect (2)” value stood at 65.8%. In addition, at KCNJ5^G151R (10 μM, mean of primary screen and hit pick), the mean % effect was determined as 57.9%. The “dose response on KCNJ5^G151R” value at KCNJ5^G151R is recorded as “potent inhibitors”.

As to `CC[C@H]1OC(=O)[C@H](C)[C@@H](O)[C@H](C)[C@@H](O[C@@H]2O[C@H](C)C[C@H](N(C)C)[C@H]2O)[C@](C)(O)C[C@@H](C)/C(=N\OCOCCOC)[C@H](C)[C@@H](O)[C@]1(C)O` [decladinose roxithromycin], the “inhibition of KCNJ5^MUT (structure-activity statement)” value against KCNJ5^G151R was “loss of inhibition”.

For `CO[C@@H]1[C@@H](O[C@@H]2O[C@H](C)[C@@H](O[C@H]3C[C@@](C)(O)[C@@H](OC(=O)CC(C)C)[C@H](C)O3)[C@H](N(C)C)[C@H]2O)[C@@H](CC=O)C[C@@H](C)[C@@H](O)/C=C/C=C/C[C@@H](C)OC(=O)C[C@H]1OC(C)=O` [josamycin], the “activity against KCNJ5^G151R in the primary screen” value (“activity against KCNJ5^G151R” below) on KCNJ5^G151R (10 μM) is recorded as “little or no activity”.

Consider `CO[C@@H]1[C@@H](O[C@@H]2O[C@H](C)[C@@H](O[C@H]3C[C@@](C)(O)[C@@H](OC(=O)CC(C)C)[C@H](C)O3)[C@H](N(C)C)[C@H]2O)[C@@H](CC=O)C[C@@H](C)[C@@H](O)/C=C/C=C/C[C@@H](C)OC(=O)C[C@H]1O` [kitasamycin], for which the “activity against KCNJ5^G151R” value on KCNJ5^G151R (10 μM) was “little or no activity”.

For the compound `C[C@@H]1C/C=C/C=C/C=C/C=C/[C@H](O[C@@H]2O[C@H](C)[C@@H](O)[C@H](N)[C@@H]2O)C[C@@H]2O[C@](O)(C[C@@H](O)C[C@H]3O[C@@H]3/C=C/C(=O)O1)C[C@H](O)[C@H]2C(=O)O` [natamycin], the “activity against KCNJ5^G151R” value at KCNJ5^G151R (10 μM) is “little or no activity”.

Take `CO[C@H]1C[C@H](O[C@H]2[C@H](C)[C@@H](O[C@@H]3O[C@H](C)C[C@H](N(C)C)[C@H]3O)[C@@H](C)C[C@@]3(CO3)C(=O)[C@H](C)[C@@H](O)[C@@H](C)[C@@H](C)OC(=O)[C@@H]2C)O[C@@H](C)[C@@H]1O` [oleandomycin]: the “activity against KCNJ5^G151R” value on KCNJ5^G151R (10 μM) is given as “little or no activity”.

Regarding `CC[C@@H]1C=CC=CC[C@H](C)[C@@H](O)[C@@H](C)C(=O)[C@H](C)[C@@H](O)[C@H](C)C(=O)[C@H](C)[C@@H](O)[C@H](C)C=CC(=O)O[C@H]2[C@@H](C)[C@@H](CC1)O[C@@]1(CC[C@@H](C)[C@@H](C[C@H](C)O)O1)[C@@H]2C` [oligomycin C], the “activity against KCNJ5^G151R” value on KCNJ5^G151R (10 μM) was “little or no activity”.

Consider `C=C1c2cccc(O)c2C(=O)C2=C(O)[C@]3(O)C(=O)C(C(N)=O)=C(O)[C@@H](N(C)C)[C@@H]3[C@@H](O)[C@H]12` [rondomycin], for which the “activity against KCNJ5^G151R” value at KCNJ5^G151R (10 μM) was “little or no activity”.

Consider `CC[C@H]1OC(=O)[C@H](C)C(=O)[C@H](C)[C@@H](O[C@@H]2O[C@H](C)C[C@H](N(C)C)[C@H]2O)[C@](C)(OC)C[C@@H](C)C(=O)[C@H](C)[C@H]2N(CCCCn3cnc(-c4cccnc4)c3)C(=O)O[C@]12C` [telithromycin], for which, on KCNJ5^G151R, the “inhibition of KCNJ5^MUT (structure-activity statement)” value is on record as “loss of inhibition”. Besides, the “activity against KCNJ5^G151R” value on KCNJ5^G151R (10 μM) was “below activity threshold”.

`CO[C@H]1C[C@H](O[C@H]2[C@H](C)[C@@H](O[C@@H]3O[C@H](C)C[C@H](N(C)C)[C@H]3OC(C)=O)[C@@H](C)C[C@@]3(CO3)C(=O)[C@H](C)[C@@H](OC(C)=O)[C@@H](C)[C@@H](C)OC(=O)[C@@H]2C)O[C@@H](C)[C@@H]1OC(C)=O` [troleandomycin]: the “activity against KCNJ5^G151R” value at KCNJ5^G151R (10 μM) is given as “little or no activity”.

For the compound spiramycin, the “activity against KCNJ5^G151R” value on KCNJ5^G151R (10 μM) is listed as “little or no activity”.

The values are drawn from patent US11484543B2, “Compositions and methods for diagnosing and treating diseases and disorders associated with mutant KCNJ5” (The Rockefeller University, priority 2017, dated 2022).
